These compounds were tested against T1, GST-Xa-hAAK1 (Homo sapiens, UniProt Q2M2I8) (assay: AAK1 Kinase Assay). Conditions: IC50 (nM), ATP 22 μM; 3 hours at room temperature; Caliper LabChip 3000.
T1 construct: made in house
Type: biochemical
Experimental: The assays were performed in U-bottom 384-well plates. […] The reactions were initiated by the combination of bacterially expressed, GST-Xa-hAAK1 with substrates and test compounds. The reactions were incubated at room temperature for 3 hours and terminated by adding 60 μl of 35 mM EDTA buffer to each sample. The reactions were analyzed on the Caliper LabChip 3000 (Caliper, Hopkinton, Mass.) by electrophoretic separation of the fluorescent substrate and phosphorylated product. […] Compounds were dissolved at 10 mM in dimethylsulfoxide (DMSO) and evaluated at eleven concentrations. IC50 values were derived by non-linear regression analysis.

T1 sequence (Q2M2I8 whole entry): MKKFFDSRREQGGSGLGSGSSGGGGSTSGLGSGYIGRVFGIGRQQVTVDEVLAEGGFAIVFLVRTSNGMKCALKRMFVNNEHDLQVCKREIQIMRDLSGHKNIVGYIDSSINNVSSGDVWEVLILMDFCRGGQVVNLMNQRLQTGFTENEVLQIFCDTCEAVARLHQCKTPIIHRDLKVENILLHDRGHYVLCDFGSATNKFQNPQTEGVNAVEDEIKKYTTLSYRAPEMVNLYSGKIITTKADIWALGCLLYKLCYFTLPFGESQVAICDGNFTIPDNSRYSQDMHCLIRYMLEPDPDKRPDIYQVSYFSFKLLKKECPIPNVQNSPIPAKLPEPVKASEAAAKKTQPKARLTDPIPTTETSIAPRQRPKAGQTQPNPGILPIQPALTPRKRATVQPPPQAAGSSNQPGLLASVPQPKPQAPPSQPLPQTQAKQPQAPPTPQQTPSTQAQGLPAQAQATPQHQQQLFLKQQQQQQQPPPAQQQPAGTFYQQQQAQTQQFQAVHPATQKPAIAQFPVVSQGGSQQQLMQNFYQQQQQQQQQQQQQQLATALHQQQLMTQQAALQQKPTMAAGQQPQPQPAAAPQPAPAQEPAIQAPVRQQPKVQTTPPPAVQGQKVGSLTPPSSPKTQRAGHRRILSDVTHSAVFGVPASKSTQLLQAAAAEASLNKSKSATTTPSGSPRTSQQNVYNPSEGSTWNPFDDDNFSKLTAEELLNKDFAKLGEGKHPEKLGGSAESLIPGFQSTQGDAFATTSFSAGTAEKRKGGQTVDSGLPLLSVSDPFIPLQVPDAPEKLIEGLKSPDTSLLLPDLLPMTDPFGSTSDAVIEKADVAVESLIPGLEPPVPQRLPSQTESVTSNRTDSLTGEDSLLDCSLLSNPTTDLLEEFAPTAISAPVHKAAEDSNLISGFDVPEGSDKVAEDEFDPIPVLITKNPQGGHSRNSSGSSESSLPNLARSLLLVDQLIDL

`COc1cc(NC(=O)C2NCCCC2C(C)C)ccc1-c1cnco1` (single isomer, unassigned) [Example 87, 3-Isopropyl-N-(3-methoxy-4-(oxazol-5-yl)phenyl)piperidine-2-carboxamide] and `COc1cc(NC(=O)C2NCCCC2C(F)(F)F)ccc1-c1cnco1` (single isomer, unassigned) [Example 91, N-(3-Methoxy-4-(oxazol-5-yl)phenyl)-3-(trifluoromethyl)piperidine-2-carboxamide] are within 1.5-fold of each other in IC50: 280 nM for the first, 417 nM for the second.

Going from `COc1cc(NC(=O)[C@H]2C[C@@H](F)CN2)ccc1-c1cnco1` [Example 90, (2R,4R)-4-Fluoro-N-(3-methoxy-4-(oxazol-5-yl)phenyl)pyrrolidine-2-carboxamide] to `COc1cc(NC(=O)C2NCCCC2C(F)(F)F)ccc1-c1cnco1` (single isomer, unassigned) [Example 92, N-(3-Methoxy-4-(oxazol-5-yl)phenyl)-3-(trifluoromethyl)piperidine-2-carboxamide], the IC50 falls from 1100 nM to 74 nM (15-fold).

Compared with `CCCC[C@@H](N)C(=O)Nc1ccc(-c2cnco2)c(OC)c1` [Example 52, (R)-2-Amino-N-(3-methoxy-4-(oxazol-5-yl)phenyl)hexanamide], `CC[C@@H](N)C(=O)Nc1ccc(-c2cnco2)c(OC)c1` [Example 50, (R)-2-Amino-N-(3-methoxy-4-(oxazol-5-yl)phenyl)butanamide] is 1.6-fold lower in IC50: 530 nM for the first, 340 nM for the second. The second is the more potent here.

First: COc1cc(NC(=O)[C@H](N)CC2CCC2)ccc1-c1cnco1 [Example 6, (R)-2-Amino-3-cyclobutyl-N-(3-methoxy-4-(oxazol-5-yl)phenyl)propanamide]
Second: COc1cc(NC(=O)[C@H](N)CO)ccc1-c1cnco1 [Example 75, (R)-2-Amino-3-hydroxy-N-(3-methoxy-4-(oxazol-5-yl)phenyl)propanamide]
The IC50 of the first is 65-fold lower: 78 nM for the first, 5100 nM for the second.

`COc1cc(NC(=O)CN2CCCC2=O)ccc1-c1cnco1` [Example 59, N-(3-Methoxy-4-(oxazol-5-yl)phenyl)-2-(2-oxopyrrolidin-1-yl)acetamide] and `COc1cc(NC(=O)[C@@H]2CCCN2C(=O)C(C)C)ccc1-c1cnco1` [Example 82, (S)-1-Isobutyryl-N-(3-methoxy-4-(oxazol-5-yl)phenyl)pyrrolidine-2-carboxamide] are within 1.5-fold of each other in IC50: 2400 nM for the first, 1800 nM for the second.

Compared with `CC(C)C[C@@H](N)C(=O)Nc1cc(F)c(-c2cnco2)cc1F` [Example 105, (R)-2-Amino-N-(2,5-difluoro-4-(oxazol-5-yl)phenyl)-4-methylpentanamide], `COc1cc(NC(=O)[C@H](N)CC(C)C)c(F)cc1-c1cnco1` [Example 98, (R)-2-Amino-N-(2-fluoro-5-methoxy-4-(oxazol-5-yl)phenyl)-4-methylpentanamide] is 1.8-fold higher in IC50: 620 nM for the first, 1120 nM for the second.

First: COc1cc(NC(=O)[C@H](N)CC(C)C)ccc1-c1nncs1 [Example 23, (R)-2-Amino-N-(3-methoxy-4-(1,3,4-thiadiazol-2-yl)phenyl)-4-methylpentanamide]
Second: COc1cc(NC(=O)[C@H](N)CC(C)C)ccc1-c1ccnnc1 [Example 22, (R)-2-Amino-N-(3-methoxy-4-(pyridazin-4-yl)phenyl)-4-methylpentanamide]
The IC50 of the first is 36-fold higher: 5100 nM for the first, 140 nM for the second. The second is the more potent here.

First: COc1cc(NC(=O)C(N)C2CCCCC2C)ccc1-c1cnco1 (mixture of isomers) [Example 93, 2-Amino-N-(3-methoxy-4-(oxazol-5-yl)phenyl)-2-(2-methylcyclohexyl)acetamide]
Second: COc1cc(NC(=O)C2CCCCN2C(C)C)ccc1-c1cnco1 (centres unmarked) [Example 83, 1-Isopropyl-N-(3-methoxy-4-(oxazol-5-yl)phenyl)piperidine-2-carboxamide]
The IC50 of the first is 18-fold lower: 20 nM for the first, 360 nM for the second.

First: Cc1cc(NC(=O)[C@H](N)CC(C)C)ccc1-c1cnco1 [Example 13, (R)-2-Amino-4-methyl-N-(3-methyl-4-(oxazol-5-yl)phenyl)pentanamide]
Second: CCc1cc(NC(=O)[C@H](N)CC(C)C)ccc1-c1cnco1 [Example 14, (R)-2-Amino-N-(3-ethyl-4-(oxazol-5-yl)phenyl)-4-methylpentanamide]
The IC50 of the first is 2.6-fold higher: 248 nM for the first, 97 nM for the second.

Going from `COc1cc(NC(=O)[C@@H](CC(C)C)NCc2sccc2C)ccc1-c1cnco1` [Example 66, (R)—N-(3-Methoxy-4-(oxazol-5-yl)phenyl)-4-methyl-2-(((3-methylthiophen-2-yl)methyl)amino)pentanamide] to `COc1cc(NC(=O)[C@@H](CC(C)C)NCc2csnn2)ccc1-c1cnco1` [Example 67, (R)-2-(((1,2,3-Thiadiazol-4-yl)methyl)amino)-N-(3-methoxy-4-(oxazol-5-yl)phenyl)-4-methylpentanamide], the IC50 rises from 110 nM to 260 nM (2.4-fold). The first is the more potent here.

First: COc1cc(NC(=O)[C@H](N)CC(C)(C)C)c(F)cc1-c1cnco1 (stereo in doubt) [Example 97, 2-Amino-N-(2-fluoro-5-methoxy-4-(oxazol-5-yl)phenyl)-4,4-dimethylpentanamide]
Second: COc1cc(-c2cnco2)c(F)cc1NC(=O)[C@H](N)CC(C)C [Example 107, (R)-2-Amino-N-(5-fluoro-2-methoxy-4-(oxazol-5-yl)phenyl)-4-methylpentanamide]
The IC50 of the first is 7.5-fold higher: 630 nM for the first, 84 nM for the second.

Compared with `COc1cc(NC(=O)[C@@H](CC(C)C)NS(C)(=O)=O)ccc1-c1cnco1` [Example 68, (R)—N-(3-Methoxy-4-(oxazol-5-yl)phenyl)-4-methyl-2-(methylsulfonamido)pentanamide], `CCS(=O)(=O)N[C@H](CC(C)C)C(=O)Nc1ccc(-c2cnco2)c(OC)c1` [Example 69, (R)-2-(Ethylsulfonamido)-N-(3-methoxy-4-(oxazol-5-yl)phenyl)-4-methylpentanamide] is 4.2-fold higher in IC50: 67 nM for the first, 280 nM for the second. The first is the more potent here.

First: CC(=O)Nc1cc(-c2ccc(NC(=O)[C@H](N)CC(C)C)cc2)ccn1 [Example 118, (R)—N-(4-(2-Acetamidopyridin-4-yl)phenyl)-2-amino-4-methylpentanamide]
Second: COc1cc(NC(=O)[C@H](N)CC(C)C)ccc1-c1ccnc(Cl)c1 [Example 43, (R)-2-Amino-N-(4-(2-chloropyridin-4-yl)-3-methoxyphenyl)-4-methylpentanamide]
The IC50 of the first is 43-fold lower: 6 nM for the first, 260 nM for the second.

Compared with `CC(C)C[C@@H](N)C(=O)Nc1ccc(-c2ccncc2)cc1-c1ccsc1` [Example 113, (R)-2-Amino-4-methyl-N-(4-(pyridin-4-yl)-2-(thiophen-3-yl)phenyl)pentanamide], `COc1cc(NC(=O)[C@H](N)CC(C)C)ccc1-c1cnc2cccnn12` [Example 46, (R)-2-amino-N-(4-(imidazo[1,2-b]pyridazin-3-yl)-3-methoxyphenyl)-4-methylpentanamide] is 4.4-fold higher in IC50: 500 nM for the first, 2200 nM for the second. The first is the more potent here.

Going from `COc1cc(NC(=O)C2CNCCN2C(C)C)ccc1-c1cnco1` (centres unmarked) [Example 86, 1-Isopropyl-N-(3-methoxy-4-(oxazol-5-yl)phenyl)piperazine-2-carboxamide] to `COc1cc(NC(=O)C2CCCCN2C(=O)C(C)C)ccc1-c1cnco1` (centres unmarked) [Example 80, 1-Isobutyryl-N-(3-methoxy-4-(oxazol-5-yl)phenyl)piperidine-2-carboxamide], the IC50 rises from 52 nM to 630 nM (12-fold).

Going from `COc1cc(NC(=O)[C@H](N)CC(C)C)c(Cl)cc1-c1cnco1` [Example 27, (R)-2-Amino-N-(2-chloro-5-methoxy-4-(oxazol-5-yl)phenyl)-4-methylpentanamide] to `CC(C)C[C@@H](N)C(=O)Nc1ccc(-c2cnco2)c(N(C)C)c1` [Example 42, 2-Amino-N-(3-(dimethylamino)-4-(oxazol-5-yl)phenyl)-4-methylpentanamide], the IC50 rises from 54 nM to 860 nM (16-fold). The first is the more potent here.
